Here are results for 16 compounds from patent US20090318446A1, “4-(1H-Indol-3-yl)-Pyrimidin-2-Ylamine Derivatives and Their Use in Therapy” (Cyclacel Limited, priority 2005, published 2009).

One assay concerns the target T1, aurora-A (Homo sapiens, UniProt O14965).
T1 construct: purchased Upstate, Dundee, UK
T1 sequence (O14965 1-403): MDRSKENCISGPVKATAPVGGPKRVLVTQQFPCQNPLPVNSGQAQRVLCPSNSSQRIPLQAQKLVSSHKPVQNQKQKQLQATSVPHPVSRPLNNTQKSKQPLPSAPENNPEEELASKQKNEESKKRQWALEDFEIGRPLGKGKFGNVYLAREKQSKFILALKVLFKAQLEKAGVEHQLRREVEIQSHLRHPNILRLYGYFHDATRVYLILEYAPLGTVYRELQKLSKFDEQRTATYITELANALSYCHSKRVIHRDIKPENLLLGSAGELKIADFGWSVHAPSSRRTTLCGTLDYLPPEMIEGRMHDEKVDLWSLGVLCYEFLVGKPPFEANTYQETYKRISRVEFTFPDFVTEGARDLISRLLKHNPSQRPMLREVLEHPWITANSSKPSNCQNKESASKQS
Description: Aurora-A (human) kinase assay. In kind it is biochemical. The following applies: Table 3, values without asterisk; read-out: Kinase inhibition Aurora A. Here is the method: (§1) This was achieved by measurement of incorporation of radioactive phosphate from ATP into Kemptide substrate (LRRASLG), upon phosphorylation by commercially obtained aurora-A (human, Upstate, Dundee, UK). Assays were performed using 96-well plates and appropriate assay buffers (20 mM Tris, 25 mM β-glycerophosphate, 5 mM EGTA, 1 mM DTT, 1 mM sodium vanadate, pH 7.5), into which were added 2-5 ng of active enzyme with 500 μM substrate (Kemptide). The reactions were initiated by addition of MgATP mix (15 mM MgCl2+100 μM ATP with 15-25 kBq per well of [γ-^32P]-ATP) and mixtures incubated for 30 min at 30° C. Reactions were stopped by addition of an equal volume of 75 mM aq orthophosphoric acid, followed by filtration through p81 filterplates (Whatman Polyfiltronics, Kent, UK). After washing 4 times with 75 mM aq orthophosphoric acid, plates were dried, scintillant added and incorporated radioactivity measured in a scintillation counter (TopCount, Packard Instruments, Pangbourne, Berks, UK). Compounds for kinase assay were made up as 10 mM stocks in DMSO and diluted into 10% DMSO in assay buffer. Data was analysed using curve-fitting software (XLfit version 4.0.2, IDBS, Guildford, Surrey, UK) to determine IC50 values (concentration of test compound which inhibits kinase activity by 50%).

The subject of the next assay is Mia-PaCa-2. As to the kind of experiment: MTT cytotoxicity assay, Mia-PaCa-2. The class given is cell-based. The following applies: Homo sapiens, after incubation. Here is the method: (§2) The compounds of the invention were subjected to a standard cellular proliferation assay using human tumour cell lines obtained from the ATCC (American Type Culture Collection, 10801 University Boulevard, Manessas, Va. 20110-2209, USA). […] C.; Thomas, D. G.; Darling, J. L. Anti Cancer Drugs 1996, 7, 331-8; Loveland, B. E.; Johns, T. G.; Mackay, 1. R.; Vaillant, F.; Wang, Z. X.; Hertzog, P. J. Biochemistry International 1992, 27, 501-10). In short: cells were seeded into 96-well plates according to doubling time and incubated overnight at 37° C. […] MTT was made up as a stock of 5 mg/mL in cell media and filter-sterilised. Media was removed from cells followed by a wash with 200 μL PBS. MTT solution was then added at 20 μL per well and incubated in the dark at 37° C. for 4 h MTT solution was removed and cells again washed with 200 μL PBS. MTT dye was solubilised with 200 μL per well of DMSO with agitation. Absorbance was read at 540 nm and data analysed using curve-fitting software (GraphPad Prism version 3.00 for Windows, GrapbPad Software, San Diego Calif. USA) to determine IC50 values (concentration of test compound which inhibits cell growth by 50%).

Another assay concerns A2780. As to the kind of experiment: MTT cytotoxicity assay, A2780. In kind it is cell-based. The following applies: Homo sapiens, after incubation. How it is done: as §2
For orientation: Formazan colour is commonly taken as a measure of viable cells.

The target of the next assay is T2, aurora-B (Homo sapiens, UniProt Q96GD4).
T2 construct: purchased Upstate, Dundee, UK
As to the kind of experiment: Aurora-B (human) kinase assay. In kind it is biochemical. The following applies: Table 3; read-out: Kinase inhibition Aurora B. How it is done: as §1, with “obtained aurora-B” for “obtained aurora-A”, “added 75” for “added 2-5”, “of pre-activated” for “of active”, “for 60” for “for 30”
Aurora-B (human, Upstate, Dundee, UK) was pre-activated immediately prior to kinase assay in appropriate buffers (20 mM Tris, 25 mM β-glycerophosphate, 5 mM EGTA, 1 mM DTT, 1 mM sodium vanadate, pH 7.5) by incubating 15 μg of enzyme with 4 μg INCENP (Upstate, Dundee, UK) in the presence of MgATP mix (15 mM MgCl2+100 μM ATP) for 15 min at 30° C.

T2 sequence (Q96GD4 whole entry): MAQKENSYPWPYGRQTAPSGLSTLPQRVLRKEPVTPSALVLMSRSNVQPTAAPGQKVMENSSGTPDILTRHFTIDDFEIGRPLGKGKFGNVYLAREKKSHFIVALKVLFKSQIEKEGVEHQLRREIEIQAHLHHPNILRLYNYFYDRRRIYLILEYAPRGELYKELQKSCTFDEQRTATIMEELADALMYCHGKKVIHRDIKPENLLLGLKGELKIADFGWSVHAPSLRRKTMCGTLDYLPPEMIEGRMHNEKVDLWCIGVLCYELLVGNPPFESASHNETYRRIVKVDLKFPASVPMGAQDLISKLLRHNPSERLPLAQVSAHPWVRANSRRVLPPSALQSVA

For `COc1cc(Nc2nccc(-c3c[nH]c4ccccc34)n2)cc(OC)c1` [Compound 14, N-(3,5-dimethoxyphenyl)-4-(1H-indol-3-yl)pyrimidin-2-amine], the IC50 on aurora-A was 563 nM.
On the same count and under the same terms, the value for `Cn1cc(-c2ccnc(Nc3ccc(N4CCOCC4)cc3)n2)c2ccccc21` [Compound 15, 4-(1-methyl-1H-indol-3-yl)-N-(4-morpholin-4-ylphenyl)pyrimidin-2-amine] was 370 nM; that for `CC(=O)N1CCN(c2ccc(Nc3nccc(-c4cn(C)c5ccccc45)n3)cc2)CC1` [Compound 16, 4-(1-methyl-1H-indol-3-yl)-N-(4-acetylpiperazine-1-ylphenyl)pyrimidin-2-amine] was 235 nM.
Consider `c1ccc2c(-c3ccnc(Nc4ccc5c(c4)OCO5)n3)c[nH]c2c1` [Compound 17, N-1,3-benzodioxol-5-yl-4-(1H-indol-3-yl)pyrimidin-2-amine], for which the IC50 at aurora-A was found to be 742 nM.
Consider `O=C(C1CC1)n1cc(-c2ccnc(Nc3ccc(N4CCOCC4)cc3)n2)c2ccccc21` [Compound 18, 4-[1-(cyclopropylcarbonyl)-1H-indol-3-yl]-N-(4-morpholin-4-ylphenyl)pyrimidin-2-amine], for which the IC50 at aurora-A turned out to be 3360 nM.
For `CC(=O)n1cc(-c2ccnc(Nc3ccc(N4CCOCC4)cc3)n2)c2ccccc21` [Compound 19, 4-(1-acetyl-1H-indol-3-yl)-N-(4-morpholin-4-ylphenyl)pyrimidin-2-amine], the IC50 at aurora-A came out at 2190 nM.
As to `CN1CCN(c2ccc(Nc3nccc(-c4c[nH]c5ccccc45)n3)cc2)CC1` [Compound 20, 4-(1H-indol-3-yl)-N-(4-methylpiperazin-1-ylphenyl)pyrimidin-2-amine], at aurora-A, the IC50 amounted to 434 nM.
With `COc1cccc2c(-c3ccnc(Nc4ccc(N5CCN(C(C)=O)CC5)cc4)n3)c[nH]c12` [Compound 21, 4-(7-methoxy-1H-indol-3-yl)-N-(4-acetylpiperazin-1-ylphenyl)pyrimidin-2-amine], the IC50 with Mia-PaCa-2 worked out at 1040 nM; at aurora-A it was 234 nM.
Regarding `COc1ccc2c(-c3ccnc(Nc4ccc(N5CCN(C(C)=O)CC5)cc4)n3)c[nH]c2c1` [Compound 24], the IC50 in the assay on Mia-PaCa-2 is 723 nM; in the assay with A2780, 576 nM; at aurora-A, 210 nM.
Consider `CC(=O)N1CCN(c2ccc(Nc3nccc(-c4c[nH]c5c(Cl)cccc45)n3)cc2)CC1` [Compound 25], for which the IC50 on aurora-A was 559 nM.
As to `CC(=O)N1CCN(c2ccc(Nc3nccc(-c4c[nH]c5cc(F)ccc45)n3)cc2)CC1` [Compound 26], the figures for the IC50 on aurora-B and at aurora-A were 175 nM and 194 nM, respectively.
With `CC(=O)N1CCN(c2ccc(Nc3nccc(-c4c[nH]c5ccccc45)n3)cc2C)CC1` [Compound 27, 4-(1H-indol-3-yl)-N-[(4-acetylpiperazin-1-yl)-3-methylphenyl]pyrimidin-2-amine], the IC50 at aurora-B came out at 365 nM; at aurora-A, 276 nM.
Take `Cc1cc(Nc2nccc(-c3c[nH]c4ccccc34)n2)ccc1N1CCSCC1` [Compound 28, 4-(1H-indol-3-yl)-N-(3-methyl-4-thiomorpholin-4-ylphenyl)pyrimidin-2-amine]: the IC50 at aurora-B turned out to be 636 nM; on aurora-A, 856 nM.
For the compound `C[C@@H]1CN(c2ccc(Nc3nccc(-c4c[nH]c5ccccc45)n3)cc2)C[C@H](C)O1` [Compound 29, 4-(1H-indol-3-yl)-N-[(2R,6S)-2,6-dimethylmorpholin-4-ylphenyl]pyrimidin-2-amine], the IC50 at aurora-A stood at 386 nM.
The same measure, in the same setting: the value for `C[C@H]1CN(c2ccc(Nc3nccc(-c4c[nH]c5ccccc45)n3)cc2)C[C@H](C)O1` [Compound 30, 4-(1H-indol-3-yl)-N-[(2S,6S)-2,6-dimethylmorpholin-4-ylphenyl]pyrimidin-2-amine] was 1250 nM; that for `CC1CC(C)CN(c2ccc(Nc3nccc(-c4c[nH]c5ccccc45)n3)cc2)C1` (stereo not shown) [Compound 31, 4-(1H-indol-3-yl)-N-(3,5-dimethylpiperidin-1-ylphenyl)pyrimidin-2-amine] was 4510 nM.
